Read-outs that look alike come from different tables or passages of the source.
How the values were obtained:
[1] = Pharmacokinetics after single topical application in rats (plasma, tendon, skin); assay type: in vivo, rat; conditions: for AUC(0-t) / Cmax / Tmax: topical or ocular; for Kp: tendon and plasma
Description: The compound 175 formulation was applied once topically to each ankle of the hind leg of each animal at 60 μL volume (30 μL/cm^2×2 cm^2) over the area of the Achilles tendon.
Blood samples (˜0.5 mL) were collected via cardiac puncture, into tubes containing K2EDTA as anticoagulant, at 1, 2, 4, 7 and 24 hours post-dose from 2 animals per timepoint (n=2). Plasma was harvested and frozen at −80° C. for bioanalysis.
The Achilles tendons from both ankles were collected following euthanasia at 1, 2, 4, 7 and 24 hours post-dose from 2 animals per timepoint (n=4) from all groups. Skin tissue samples were collected from the dose-site at 7 and 24 hours post-dose from 2 animals per timepoint (n=4) in Group 2. Tissues were frozen at −80° C. for bioanalysis. Blood and tissue collection schedule is outlined in Table 8 below.
Skin tissue samples were processed using the following procedures: 1) Weigh tissue and homogenize using cryoPrep (Covaris); 2) Add 9× volume of Acetonitrile:Methanol (70:30) and vortex for one hour; 3) Aliquot 100 μL of tissue homogenate into 96 microtube polypropylene plate; 4) Add 10 μL of working standard to each standard; 5) Add 10 μL of methanol in all samples and blanks; 6) Add 10 μL of internal standard (IS) to all tubes except blanks; 7) Spin in centrifuge at 3000 rpm for 10 minutes; and 8) Transfer 100 μL of supernatant into 96-well plate containing 150 μL of water. Cap and vortex for LC/MS/MS analysis.
The chromatograms of the samples were integrated and calibrated using Analyst 1.6.2 (AB Sciex, Redwood City, Calif.). Linear regression with 1/x^2 weighting and internal standardization was used for standard calibration, with an acceptance criterion of ±30% of nominal standard concentration. The lower limit of quantitation (LLOQ) was 2.00 ng/mL (plasma), 6.00 ng/g (tendon) and 25.0 ng/g (skin). Pharmacokinetic parameters were estimated by noncompartmental analysis from individual concentration versus time profiles using Pheonix WinNonlin version 6.3 (Certara, Inc., Princeton, N.J.). The time to maximum concentration (tmax) and the maximum concentration (Cmax) were determined based on measured plasma and tissue concentrations. The area under the curve (AUC0-last) was calculated using the linear trapezoidal rule.

[2] = test system: Wnt responsive promoter linked to luciferase gene in SW480 cells; assay: Wnt Reporter Assay, SW480, 48 hours (Example 10); assay type: cell-based; conditions: Homo sapiens, 10-0.0003 μM, read-out: EC50, inhibition of Wnt pathway activity
Description: SW480 cells (ATCC) were cultured in Dulbecco's modified Eagle's medium (DMEM, ThermoFisher) with 1% Glutamax (Life Technologies), 1% Penicillin-Streptomycin (Life Technologies), 150 ug/ml Hygromycin (Life Technologies) with 10% fetal bovine serum (FBS) (Hyclone) at 37° C., 5% CO2.
Wnt Reporter Assay. Human colorectal cancer cell line SW480, stably expressing the Wnt responsive promoter linked to luciferase gene, was plated overnight at 4×10e^4 cells/well in DMEM, high glucose, no glutamine, no phenol red (Life Technologies), 1% Glutamax (Life Technologies), 1% Sodium Pyruvate (Life Technologies), 1% Penicillin-Streptomycin (Life Technologies) with 1% Fetal Bovine Serum (Hyclone). Cells were then treated with DMSO (vehicle control) or COMPOUND 175 at 10 μM top concentration and half a log dilution up to 10 concentrations (10, 3, 1, 0.3, 0.1, 0.03, 0.01, 0.003, 0.001 and 0.0003 μM). Cells were incubated for 48 hours at 37° C. 15 μl of Bright-Glo (Bright-Glo™ Luciferase Assay System, Promega) was added to the cells and luminescence was measured using the Cytation 3 plate reader (Biotek). Data was normalized using the DMSO control and inhibition profile and EC50 was calculated using Prism 4 (GraphPad Software Inc, La Jolla, Calif., USA). Prism 4.0 was used to calculate the EC50 of the Wnt reporter inhibition assay.

[3] = Tendon, Group 1, 1 mg/mL, 1% BA, single topical
[4] = Tendon, Group 2, 10 mg/mL, 1% BA, single topical
[5] = Tendon, Group 3, 10 mg/mL, no preservative (0.5% Tween 80), single topical
[6] = male, Sprague Dawley, rat, plasma, 1 mg/mL, Plasma, Group 1, 1 mg/mL, 1% BA, single topical
[7] = male, Sprague Dawley, rat, plasma, 10 mg/mL, Plasma, Group 2, 10 mg/mL, 1% BA, single topical
[8] = male, Sprague Dawley, rat, plasma, 10 mg/mL, Plasma, Group 3, 10 mg/mL, no preservative (0.5% Tween 80), single topical
[9] = male, Sprague Dawley, rat, tendon, 1 mg/mL, Tendon, Group 1, 1 mg/mL, 1% BA, single topical
[10] = male, Sprague Dawley, rat, tendon, 10 mg/mL, Tendon, Group 2, 10 mg/mL, 1% BA, single topical
[11] = male, Sprague Dawley, rat, tendon, 10 mg/mL, Tendon, Group 3, 10 mg/mL, no preservative (0.5% Tween 80), single topical

COc1ccc(NC(=O)c2n[nH]c3ccc(-c4cncc(CN5CCCCC5)c4)cc23)cn1 [compound 175, N-(6-Methoxypyridin-3-yl)-5-(5-(piperidin-1-ylmethyl)pyridin-3-yl)-1H-indazole-3-carboxamide]
plasma exposure of Group 3 relative to Group 2 ([1]; 10 mg/mL without BA (Tween 80) vs 10 mg/mL with BA): ~0.2 × | tendon exposure of Group 3 relative to Group 2 ([1]; 10 mg/mL without BA vs 10 mg/mL with BA): ~4 × | skin concentration relative to tendon concentrations ([1]; 7 and 24 hours post-dose, Group 2): roughly 1000 × | increase in tendon AUC(0-last) for a 10× dose-increment ([1]; Group 2 vs Group 1, formulations containing BA): 3.4 × | last ([1]; Plasma, Group 1, 1 mg/mL, 1% BA, single topical): 1.00 h | last ([1]; Plasma, Group 2, 10 mg/mL, 1% BA, single topical): 7.00 h | last ([1]; Plasma, Group 3, 10 mg/mL, no preservative (0.5% Tween 80), single topical): 7.00 h | last ([1]; Skin, Group 2, 10 mg/mL, 1% BA, single topical): 24.0 h | AUC(0-last) [1, 3]: 2164 ng·h/g | last [1, 3]: 24.0 h | AUC(0-last) [1, 4]: 7270 ng·h/g | last [1, 4]: 24.0 h | AUC(0-last) [1, 5]: 28077 ng·h/g | last [1, 5]: 24.0 h | AUC(0-t) [1, 6]: 0.65 ng·h/mL | Cmax [1, 6]: 1.3 ng/mL | Tmax [1, 6]: 1 h | AUC(0-t) [1, 7]: 36.1 ng·h/mL | Cmax [1, 7]: 10.6 ng/mL | Tmax [1, 7]: 4 h | AUC(0-t) [1, 8]: 6.79 ng·h/mL | Cmax [1, 8]: 1.94 ng/mL | Tmax [1, 8]: 7 h | Tmax ([1]; male, Sprague Dawley, rat, skin, 10 mg/mL, Skin, Group 2, 10 mg/mL, 1% BA, single topical): 7 h | Cmax ([1]; male, Sprague Dawley, rat, skin, 10 mg/mL, Skin, Group 2, 10 mg/mL, 1% BA, above quantitation limit (AQL > 25000 ng/g), reported as estimated): 209000 ng/g | concentration at 7 h ([1]; male, Sprague Dawley, rat, skin, topical, 7 hours post-dose, Group 2, 10 mg/mL containing BA, above quantitation limit, estimated): 209000 ng/g | concentration at 24 h ([1]; male, Sprague Dawley, rat, skin, topical, 24 hours post-dose, Group 2, 10 mg/mL containing BA, above quantitation limit, estimated): 113000 ng/g | Kp ([1]; male, Sprague Dawley, rat, topical, 1 mg/mL, Tendon to plasma, Group 1, 1 mg/mL, 1% BA, read-out: Tissue/Plasma AUC Ratio): 3330 | Kp ([1]; male, Sprague Dawley, rat, topical, 10 mg/mL, Tendon to plasma, Group 2, 10 mg/mL, 1% BA, read-out: Tissue/Plasma AUC Ratio): 202 | Kp ([1]; male, Sprague Dawley, rat, topical, 10 mg/mL, Tendon to plasma, Group 3, 10 mg/mL without BA, read-out: Tissue/Plasma AUC Ratio): 4140 | Kp ([1]; male, Sprague Dawley, rat, topical, all dose groups, single topical administration, read-out: tendon to plasma ratios, range across groups): 202 to 4140 | Cmax [1, 9]: 519 ng/g | Tmax [1, 9]: 1 h | Cmax [1, 10]: 1930 ng/g | Tmax [1, 10]: 1 h | Cmax [1, 11]: 7050 ng/g | Tmax [1, 11]: 1 h | EC50 [2]: 153 nM

— US10806726B2, “Methods of using indazole-3-carb oxamides and their use as Wnt/B-catenin signaling pathway inhibitors” (Samumed, LLC, priority 2016, dated 2020)
